Where two headings read alike, the source gives them in different places.
Tested on: phosphorylation of AKT in HCC70 cells
Test: Cellular assay: phosphorylation of AKT in HCC70 cells (western blotting)
Format: cell-based
Settings: Homo sapiens, HCC70, 1 h
Method: Cellular activity of PI3Kβ inhibitors was determined by quantifying the phosphorylation of AKT in HCC70 cells. AKT phosphorylated at Ser473 and Thr308 were measured using western blotting and specific primary antibodies from Cell Signaling (CST), Danvers, MA. On day 1, HCC70 cells (ATCC #CRL-2315) were seeded into Falcon 12-well cell Culture Plate (Corning #353043) at 100,000 cells per well, in 1 ml complete culture medium (RPMI-1640, GIBCO #11875093) containing 10% heat inactivated FBS (GIBCO #10438026), 1% Pen-Strep (GIBCO #15140122) and incubated at 37° AC, 5% CO2 overnight. On day 2, compound (500 nM) or DMSO (0.1%, Sigma Aldrich #8418) was added and cells were further incubated for 60 min at 37° AC, 5% CO2 in a total volume of 1 ml fresh medium.
At the end of the cell treatment period, media were removed by aspiration and adherent cells were lysed in 100 uL RIPA buffer (Sigma Aldrich #R0278). Equal volume (15 uL) of proteins was resolved by SDS-PAGE and transferred to PVDF (Millipore #IPFL00010) membrane for immunoblot analysis. Primary antibodies to the following proteins were used for immunoblotting: phosphor-AKT (Ser473) (CST #4060), phosphor-AKT (Thr308) (CST #2965), total AKT (CST #9272). Secondary goat anti-rabbit IgG fluorophore conjugated antibody (Invitrogen #A21109) was used to visualize the indicated proteins on an Odyssey CLx imaging system (Li-Cor). Quantification of band intensities was performed using Odyssey 3.0 software. Inhibition of Akt activity was calculated by band intensities using the formula: […]
Index was evaluated by % of AI. Data represent Index+(20˜60%), ++(60%˜80%), +++(80%˜90%), and ++++>90%.

[1] = HCC70 cells, compound 500 nM, 60 min, inhibition of Akt activity from band intensities, read-out: Index of AI (HCC70) p-AKT Thr 308
[2] = HCC70 cells, compound 500 nM, 60 min, inhibition of Akt activity from band intensities, read-out: Index of AI (HCC70) p-AKT ser 473
[3] = read-out: Index of AI (HCC70) p-AKT Thr 308
[4] = read-out: Index of AI (HCC70) p-AKT ser 473

| Structure (SMILES) | inhibition at 0.5 µM [1] [%] | inhibition at 0.5 µM [2] [%] | inhibition at 0.5 µM [3] [%] | inhibition at 0.5 µM [4] [%] |
| --- | --- | --- | --- | --- |
| CN(C)c1cc(CNc2cc(F)cc(F)c2)c2oc(N3CCOCC3)cc(=O)c2c1 [Compound 2, 8-(((3,5-difluorophenyl)amino)methyl)-6-(dimethylamino)-2-morpholino-4H-chromen-4-one] | 60 to 80 | 60 to 80 |  |  |
| N#Cc1cc(CNc2cc(F)cc(F)c2)c2oc(N3CCOCC3)cc(=O)c2c1 [Compound 3, 8-(((3,5-difluorophenyl)amino)methyl)-2-morpholino-4-oxo-4H-chromene-6-carbonitrile] | 60 to 80 | 60 to 80 |  |  |
| CC(Nc1cc(F)cc(F)c1)c1cc(-c2c[nH][nH]c2=O)cc2c(=O)cc(N3CCOCC3)oc12 (stereo not drawn) [Compound 61, 4-(8-(1-((3,5-difluorophenyl)amino)ethyl)-2-morpholino-4-oxo-4H-chromen-6-yl)-1H-pyrazol-3(2H)-one] | 20 to 60 | 20 to 60 |  |  |
| CC1Cc2c(F)cc(F)cc2N1C(C)c1cc(C(=O)N(C)C)cn2c(=O)cc(N3CCOCC3)nc12 (stereo not drawn) [Compound 96, 9-(1-(4,6-difluoro-2-methylindolin-1-yl)ethyl)-N,N-dimethyl-2-morpholino-4-oxo-4H-pyrido[1,2-a]pyrimidine-7-carboxamide] | > 90 | > 90 |  |  |
| CC(=O)Nc1cc(CNc2cc(F)cc(F)c2)c2oc(N3CCOCC3)cc(=O)c2c1 [Compound 8, N-(8-(((3,5-difluorophenyl)amino)methyl)-2-morpholino-4-oxo-4H-chromen-6-yl)acetamide] | 60 to 80 | 60 to 80 |  |  |
| CN(C)C(=O)c1cc(CN2CCc3ccccc32)c2oc(N3CCOCC3)cc(=O)c2c1 [Compound 67, 8-(indolin-1-ylmethyl)-N,N-dimethyl-2-morpholino-4-oxo-4H-chromene-6-carboxamide] | 60 to 80 | 60 to 80 |  |  |
| Cc1cc(CN2CCc3cc(F)ccc32)c2nc(N3CCOCC3)cc(=O)n2c1 [Compound 56, 9-((5-fluoroindolin-1-yl)methyl)-7-methyl-2-morpholino-4H-pyrido[1,2-a]pyrimidin-4-one] | 60 to 80 | 60 to 80 |  |  |
| C[C@H]1Cc2c(F)cccc2N1Cc1cc(C(=O)N(C)C)cc2c(=O)cc(N3CCOCC3)oc12 (single isomer, unassigned) [Compound 102] | > 90 | > 90 |  |  |
| CC(Nc1cc(F)cc(F)c1)c1cc(Cc2nnc[nH]2)cc2c(=O)cc(N3CCOCC3)oc12 (stereo not drawn) [Compound 60, 6-((4H-1,2,4-triazol-3-yl)methyl)-8-(1-((3,5-difluorophenyl)amino)ethyl)-2-morpholino-4H-chromen-4-one] | 80 to 90 | 80 to 90 |  |  |
| CN(C)C(=O)Nc1cc(CNc2cc(F)cc(F)c2)c2oc(N3CCOCC3)cc(=O)c2c1 [Compound 7, 3-(8-(((3,5-difluorophenyl)amino)methyl)-2-morpholino-4-oxo-4H-chromen-6-yl)-1,1-dimethylurea] | 60 to 80 | 60 to 80 |  |  |
| CC(Nc1cc(F)cc(F)c1)c1cc(NC2=NCCN2)cc2c(=O)cc(N3CCOCC3)oc12 (stereo not drawn) [Compound 20, 8-(1-((3,5-difluorophenyl)amino)ethyl)-6-((4,5-dihydro-1H-imidazol-2-yl)amino)-2-morpholino-4H-chromen-4-one] | 60 to 80 | 60 to 80 |  |  |
| CN(C)C(=O)c1cc(CN2CCc3c(F)cc(F)cc32)c2oc(N3CCO[C@H](CO)C3)cc(=O)c2c1 [Compound 92, (S)-8-((4,6-difluoroindolin-1-yl)methyl)-2-(2-(hydroxymethyl)morpholino)-N,N-dimethyl-4-oxo-4H-chromene-6-carboxamide] |  |  | 60 to 80 | 60 to 80 |
| CN(C)C(=O)c1cc(CN2CCc3ccc(F)cc32)c2oc(N3CCOCC3)cc(=O)c2c1 [Compound 70, 8-((6-fluoroindolin-1-yl)methyl)-N,N-dimethyl-2-morpholino-4-oxo-4H-chromene-6-carboxamide] | 80 to 90 | 80 to 90 |  |  |
| CC1(C)CN(C(=O)c2cc(CN3CCc4c(F)cc(F)cc43)c3oc(N4CCOCC4)cc(=O)c3c2)C1 [Compound 87, 8-((4,6-difluoroindolin-1-yl)methyl)-6-(3,3-dimethylazetidine-1-carbonyl)-2-morpholino-4H-chromen-4-one] | 60 to 80 | 60 to 80 |  |  |
| C[C@@H]1Cc2c(F)cc(F)cc2N1Cc1cc(C(=O)N(C)C)cc2c(=O)cc(N3CCOCC3)oc12 (single isomer, unassigned) [Compound 65] | 20 to 60 | 20 to 60 |  |  |
| CC(Nc1cc(F)cc(F)c1)c1cc(NC(=O)CC#N)cc2c(=O)cc(N3CCOCC3)oc12 (stereo not drawn) [Compound 22, 2-cyano-N-(8-(1-((3,5-difluorophenyl)amino)ethyl)-2-morpholino-4-oxo-4H-chromen-6-yl)acetamide] | > 90 | > 90 |  |  |
| CCN(C)C(=O)c1cc(CN2CCc3c(F)cc(F)cc32)c2oc(N3CCOCC3)cc(=O)c2c1 [Compound 79, 8-((4,6-difluoroindolin-1-yl)methyl)-N-ethyl-N-methyl-2-morpholino-4-oxo-4H-chromene-6-carboxamide] | 80 to 90 | 80 to 90 |  |  |
| CN(C)C(=O)c1cc(CN2CCc3c(F)cc(F)cc32)c2oc(N3CCO[C@H](CF)C3)cc(=O)c2c1 [Compound 93, (S)-8-((4,6-difluoroindolin-1-yl)methyl)-2-(2-(fluoromethyl)morpholino)-N,N-dimethyl-4-oxo-4H-chromene-6-carboxamide] | 80 to 90 | 80 to 90 |  |  |
| CC1Cc2c(F)cc(F)cc2N1Cc1cc(C(=O)N(C)C)cc2c(=O)cc(N3CCOCC3)oc12 (stereo not drawn) [Compound 63, 8-((4,6-difluoro-2-methylindolin-1-yl)methyl)-N,N-dimethyl-2-morpholino-4-oxo-4H-chromene-6-carboxamide] | > 90 | > 90 |  |  |
| C#Cc1cc(CNc2cc(F)cc(F)c2)c2oc(N3CCOCC3)cc(=O)c2c1 [Compound 5, 8-(((3,5-difluorophenyl)amino)methyl)-6-ethynyl-2-morpholino-4H-chromen-4-one] |  |  | 60 to 80 | 60 to 80 |
| CC1(C#N)CN(C(=O)c2cc(CN3CCc4c(F)cc(F)cc43)c3oc(N4CCOCC4)cc(=O)c3c2)C1 [Compound 88, 1-(8-((4,6-difluoroindolin-1-yl)methyl)-2-morpholino-4-oxo-4H-chromene-6-carbonyl)-3-methylazetidine-3-carbonitrile] | 60 to 80 | 60 to 80 |  |  |
| CCC(Nc1cc(F)cc(F)c1)c1cc(C(=O)N(C)C)cc2c(=O)cc(N3CCOCC3)oc12 (stereo not drawn) [Compound 31, 8-(1-((3,5-difluorophenyl)amino)propyl)-N,N-dimethyl-2-morpholino-4-oxo-4H-chromene-6-carboxamide] | > 90 | > 90 |  |  |
| Cc1cc(CN2CCc3c(F)cc(F)cc32)c2nc(N3CCOCC3)cc(=O)n2c1 [Compound 54, 9-((4,6-difluoroindolin-1-yl)methyl)-7-methyl-2-morpholino-4H-pyrido[1,2-a]pyrimidin-4-one] | 20 to 60 | 20 to 60 |  |  |
| CC(c1cc(C(=O)N2CC[C@@H](N(C)C)C2)cn2c(=O)cc(N3CCOCC3)nc12)N1CCc2cccc(Cl)c21 (stereo partly drawn) [Compound 97, 9-(1-(7-chloroindolin-1-yl)ethyl)-7-((R)-3-(dimethylamino)pyrrolidine-1-carbonyl)-2-morpholino-4H-pyrido[1,2-a]pyrimidin-4-one] | 20 to 60 | 20 to 60 |  |  |
| O=C(c1cc(CN2CCc3c(F)cc(F)cc32)c2oc(N3CCOCC3)cc(=O)c2c1)N1CCC1 [Compound 45, 6-(azetidine-1-carbonyl)-8-((4,6-difluoroindolin-1-yl)methyl)-2-morpholino-4H-chromen-4-one] | > 90 | > 90 |  |  |
| CC(Nc1cc(F)cc(F)c1)c1cc(CC(=O)N(C)C)cc2c(=O)cc(N3CCOCC3)oc12 (stereo not drawn) [Compound 24, 2-(8-(1-((3,5-difluorophenyl)amino)ethyl)-2-morpholino-4-oxo-4H-chromen-6-yl)-N,N-dimethylacetamide] | > 90 | > 90 |  |  |
| CC(Nc1cc(F)cc(F)c1)c1cc(S(=O)(=O)N2CC(N)C2)cc2c(=O)cc(N3CCOCC3)oc12 (stereo not drawn) [Compound 17, 6-((3-aminoazetidin-1-yl)sulfonyl)-8-(1-((3,5-difluorophenyl)amino)ethyl)-2-morpholino-4H-chromen-4-one] | 60 to 80 | 60 to 80 |  |  |

Source: patent US20240166617A1, “PHOSPHOINOSITIDE 3 KINASE BETA INHIBITORS AND COMPOSITIONS AND METHODS THEREOF” (Geode Therapeutics Inc., priority 2021, published 2024)
